Series [1] relates to Candida albicans. As to the kind of experiment: Survival of mice treated with abu-MDP at 96 and 48 hr prior to challenge with Candida albicans (Example 1, Table I). The class given is in vivo. As to conditions: for Survival No. (%) / Survival Time: no MLV, days 4 and 2 before infection; for Survival No. (%): third set of rows (saline control 0%); for Survival Time: third set of rows (saline control 3.6 days). The procedure:
Multilamellar vesicles (MLVs) were formed by drying down egg phosphatidylcholine and brain phosphatidylserine (7:3 molar ratio) on the inside of a flask. Phosphate-buffered saline lacking divalent cations (PBS) was added (1 ml per 20 micromoles phospholipid), and the flask shaken, either by hand or with a mechanical shaker, until the lipid film was dispersed. When N-acetylmuramyl-L-α-aminobutyryl-D-isoglutamine (abu-MDP) was to be encapsulated, it was included in the aqueous solution before addition to the lipid film. The vesicles formed as the result of shaking the aqueous solution which contained MDP derivative were washed to remove unencapsulated MDP derivative, pelleted by centrifugation at 30,000×g for 20-30 min, and then resuspended in PBS. MLV preparations made without MDP derivative were either pelleted and resuspended as described, or were used without further treatment.
(§1) Mice were injected intravenously with liposomes (4 micromoles phospholipid)and also with free abu-MDP (2-4 mg/kg). The abu-MDP was injected at the same time as the liposome injection. Injections were made at 96 and 48 hr prior to challenge with Candida albicans (5×10^6 cells injected intravenously). Control mice were treated with either liposomes only, or abu-MDP only (4 or 60 mg/kg), or abu-MDP (2-4 mg/kg) encapsulated in liposomes, and similarly challenged with Candida albicans. Each treatment group contained 20 mice. All mice were monitored daily for number of survivors. Statistical analysis of survival time was computed using Mann Whitney U probability analysis, and the numbers of survivors were statistically compared using Fisher Exact probability analysis.
P values, calculated for survival time and number of survivors at the time when controls (treated only with MLV or with saline) first reached 100% dead, were all less than 0.03. By comparison, the treatments with the same concentration of abu-MDP alone were ineffective (P≥0.05).

The test system of series [2] is Candida albicans. As to the kind of experiment: Survival of mice given a single abu-MDP treatment 72 hr prior to challenge with Candida albicans (Example 2, Table II). As to conditions: one treatment at day 3 before infection. The class given is in vivo. On the procedure: as §1
A second experiment was performed by the method described in Example 1, except that the mice were given a single pre-infection treatment at 72 hr prior to challenge, instead of treatments at 96 and 48 hr prior to challenge as in Example 1.

Series [3] can be described thus: Radioactivity of 3H-desMDP in liposome fraction and aqueous supernatant after mixing with pre-formed MLVs (Example 3, Table III). The class given is physicochemical. The procedure: MLVs were prepared as described above, hydrating the dried lipid film with PBS. These pre-formed liposomes were then mixed with unencapsulated MDP compound spiked with tritiated N-acetyldesmethylmuramyl-L-alanyl-D-isoglutamine (^3 H-desMDP). The liposome/MDP derivative mixture was washed and pelleted, and the final liposome pellet resuspended in PBS. The radioactivity in the liposome fraction was determined, as well as the radioactivity in the aqueous supernatant from the washing and pelleting steps. […] Thus, MDP compounds are not incorporated into or attached to liposomes in the practice of the invention.

Where “and” joins values, the source holds several entries; their conditions need not be identical. Equal entries are not always repeated.

“N-acetylmuramyl-L-α-aminobutyryl-D-isoglutamine [abu-MDP]”: the entries for the “protective activity against Candida albicans” value in the series on Candida albicans [1] (abu-MDP alone at the same concentration as used with MLV (P≥0.05)) and with Candida albicans [1] (free abu-MDP alone raised to 60 mg/kg) were “ineffective” and “protective activity obtained equivalent to that seen using the lower dose of abu-MDP (2-4 mg/kg) plus MLV”, respectively. Also, the “Survival No. (%)” value turned out to be 0% with Candida albicans [1] (free abu-MDP 4 mg/kg), 45% with Candida albicans [1] (free abu-MDP 60 mg/kg), 0% in the series with Candida albicans [2] (abu-MDP 4 mg/kg) and 32% with Candida albicans [2] (free abu-MDP 60 mg/kg). Moreover, the “Survival Time” value was determined as 4.4 days in the series with Candida albicans [1] (free abu-MDP 4 mg/kg), 6.9 days with Candida albicans [1] (free abu-MDP 60 mg/kg), 5.2 days in the series with Candida albicans [2] (abu-MDP 4 mg/kg) and 6.4 days with Candida albicans [2] (free abu-MDP 60 mg/kg).
Turning to “tritiated N-acetyldesmethylmuramyl-L-alanyl-D-isoglutamine [^3 H-desMDP]”, the cpm/0.1 ml is 557,610 cpm/0.1 ml and 562,800 cpm/0.1 ml in series [3] (aqueous fraction (supernatant from washing and pelleting)); 1,462 cpm/0.1 ml and 1,304 cpm/0.1 ml in series [3] (liposome fraction (final pellet resuspended in PBS)). In addition, the “% of Total” value in series [3] (aqueous fraction (supernatant)) was approximately 100%; in series [3] (liposome fraction), 0.2%.

The values above are taken from patent US4684625A, “Method for enhancing the anti-infective activity of muramyldipeptide derivatives” (Syntex (U.S.A.) Inc., priority 1985, dated 1987).
